According to patent US20230272012A1, “PEPTIDES AND METHODS OF USE” (REALTA LIFE SCIENCES, INC., priority 2020, published 2023):
Entries after “also recorded” stand apart in the source; their conditions may differ. Bridge positions count the residues as written; N and C are the ends. Square brackets hold non-standard residues; d marks the D form. Ends that are not written are not given here. Peptide text beside a SMILES is read from it. R8 = C=CCCCCCC[C@@](C)(N)C(=O)O; S5 = C=CCCC[C@](C)(N)C(=O)O; Sar = CNCC(=O)O

Experiments:
Format in all cases: cell-based
[1] = tested on: antibody-initiated complement activation (human O sera and AB red blood cells); experiment: ABO incompatibility hemolytic assay of complement activity (CH50-type); details: for inhibition of complement activation in vitro, dose response: human AB red blood cells, human O plasma, increasing amounts of peptide
In short: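 Type AB human erythrocytes (5.0×10^7) incubated with 15% (final) type O human serum and 0.5 mM peptide in GVBS^++, 1 h at 37 °C. Hemolysis read as supernatant absorbance at 412 nm, expressed as percent of the serum-plus-RBC positive control; means of three independent experiments ±SEM.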

PD-1/PD-L1 interaction = molecular target: T1, PD-1/PD-L1 interaction (Homo sapiens, UniProt Q15116+Q9NZQ7); experiment: PD-1/PD-L1 Blockade Bioassay (Promega); details: increasing peptide concentrations
T1 construct: host or cells: PD-1 effector cells; PD-L1 aAPC/CHO-K1 cells
In short: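 PD-1 effector cells co-cultured with PD-L1 aAPC/CHO-K1 cells, with or without increasing concentrations of peptides; anti-PD-1 antibody as positive control. Blockade of PD-1/PD-L1 restores TCR signalling, read as NFAT-driven luciferase luminescence.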

[2] = tested on: purified human Pan T-cells; experiment: T-cell exhaustion protocol (Dynabeads re-stimulation); details: peptides 2 mg/ml at each stimulation; for IL-2 signal at stimulation 2: supernatant ELISA
CTLA-4 = molecular target: T2, CTLA-4 (Homo sapiens, UniProt P16410); experiment: CTLA-4 Blockade Bioassay (Promega); parameters: host or cells: Jurkat T cells (CTLA-4 effector cells); aAPC/Raji cells; details: increasing concentrations
T2 sequence (P16410 36-223): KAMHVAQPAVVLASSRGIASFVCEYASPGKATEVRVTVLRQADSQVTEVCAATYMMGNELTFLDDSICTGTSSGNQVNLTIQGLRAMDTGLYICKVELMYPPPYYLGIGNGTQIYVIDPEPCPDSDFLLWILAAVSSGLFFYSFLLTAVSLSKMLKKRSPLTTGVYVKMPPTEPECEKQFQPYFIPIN
Protocol: CTLA-4 effector cells were incubated with aAPC/Raji Cells in the absence or presence of increasing concentrations of anti-CTLA-4 antibody (positive control), RLS-0127*, RLS-0130, RLS-0156, RLS-0170 and RLS-0174. Luminescence was detected in luminometer plate reader.
To assess if PIC1 peptides could block CTLA-4 inhibitory activity in a cell-based assay, select peptides were screened in the CTLA-4 Blockade Bioassay (Promega). This bioluminescent cell-based assay is used to measure the potency and stability of molecules targeting CTLA-4 and consists of two genetically engineered cell lines: CTLA-4 effector cells: Jurkat T cells expressing human CTLA-4 and a luciferase reporter driven by a native promoter which responds to TCR/CD28 activation and aAPC/Raji Cells: Raji cells expressing an engineered cell surface protein designed to activate cognate TCRs in an antigen-independent manner and endogenously expressing CTLA-4 ligands CD80 and CD86. When the two cell types are co-cultured, CTLA-4 competes with CD28 for their shared ligands, CD80 and CD86 and thus inhibits CD28 pathway activation and promoter-mediated luminescence. Addition of a molecule that blocks the interaction of CTLA-4 with its ligands CD80 and CD86 results in promoter-mediated luminescence.

T1 sequence (Q15116 25-288): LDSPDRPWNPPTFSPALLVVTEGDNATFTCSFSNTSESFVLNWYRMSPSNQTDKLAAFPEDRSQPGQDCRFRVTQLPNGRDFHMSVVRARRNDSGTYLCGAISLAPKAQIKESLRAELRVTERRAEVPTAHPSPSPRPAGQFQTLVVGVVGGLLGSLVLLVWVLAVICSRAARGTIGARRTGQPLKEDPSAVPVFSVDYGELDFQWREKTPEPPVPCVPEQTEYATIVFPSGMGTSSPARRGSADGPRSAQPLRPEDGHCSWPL
T1 sequence (Q9NZQ7 19-290): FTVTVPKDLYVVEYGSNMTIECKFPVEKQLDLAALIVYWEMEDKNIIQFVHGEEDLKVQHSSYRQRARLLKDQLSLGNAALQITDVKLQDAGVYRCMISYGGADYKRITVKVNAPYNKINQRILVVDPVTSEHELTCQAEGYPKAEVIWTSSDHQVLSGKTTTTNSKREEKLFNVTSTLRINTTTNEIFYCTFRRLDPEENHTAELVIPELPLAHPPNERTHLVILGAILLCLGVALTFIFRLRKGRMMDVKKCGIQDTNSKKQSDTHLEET

IALILEP(Sar)dCCQERRA (IALILEP[Sar][dC]CQERRA; cysteine pairing not given here) [RLS-0127*]
inhibition of complement activation in vitro, dose response [1]: dose-dependently inhibited complement activation; also recorded: very similar levels of inhibition to the positive control; also recorded: inhibit complement activation | inhibition of PD-1/PD-L1 inhibitory signaling (luminescence) (PD-1/PD-L1 interaction): increase in luminescence indicative of inhibition of PD-1/PD-L1 inhibitory signaling; also recorded: able to inhibit PD-1/PD-L1 mediated cell signaling | IL-2 signal at stimulation 2 [2]: showed an IL-2 signal at stimulation 2 | inhibitory activity in CTLA-4 blockade bioassay (luminescence) (CTLA-4): showed inhibitory activity; also recorded: able to inhibit CTLA-4 mediated cell signaling

IALILEP(Sar)CCQERA (IALILEP[Sar]CCQERA; cysteine pairing not given here) [RLS-0133*]
inhibition of complement activation in vitro, dose response [1]: dose-dependently inhibited complement activation; also recorded: inhibit complement activation | inhibition of PD-1/PD-L1 inhibitory signaling (luminescence) (PD-1/PD-L1 interaction): increase in luminescence indicative of inhibition of PD-1/PD-L1 inhibitory signaling; also recorded: able to inhibit PD-1/PD-L1 mediated cell signaling | IL-2 signal at stimulation 2 [2]: did not | inhibitory activity in CTLA-4 blockade bioassay (luminescence) (CTLA-4): did not

CC[C@H](C)[C@H](N)C(=O)N[C@]1(C)CCCCCCC=CCCC[C@@](C)(C(=O)N[C@@H](CS)C(=O)N[C@@H](CCC(N)=O)C(=O)N[C@@H](CCC(=O)O)C(=O)N[C@@H](CCCNC(=N)N)C(=O)N[C@@H](C)C(=O)N[C@@H](C)C(=O)O)NC(=O)CN(C)C(=O)[C@@H]2CCCN2C(=O)[C@H](CCC(=O)O)NC(=O)[C@H](CC(C)C)NC(=O)[C@H]([C@@H](C)CC)NC(=O)[C@H](CC(C)C)NC1=O [PA-0115, IR8LILEP(Sar)S5CQERAA] (H-I[R8]LILEP[Sar][S5]CQERAA-OH; staple 2-9)
inhibition of ABO incompatible hemolysis compared to PA-I8Sar ([1]; peptide 0.8 mg/ml (~0.5 mM)): enhanced activity | inhibition of PD-1/PD-L1 inhibitory signaling (luminescence) (PD-1/PD-L1 interaction): did not show PD-1/PD-L1 inhibitory activity | IL-2 signal at stimulation 2 [2]: did not | inhibitory activity in CTLA-4 blockade bioassay (luminescence) (CTLA-4): did not

CC[C@H](C)[C@H](N)C(=O)N[C@@H](C)C(=O)N[C@@H](CC(C)C)C(=O)N[C@H](C(=O)N[C@@H](CC(C)C)C(=O)N[C@@H](CCC(=O)O)C(=O)N1CCC[C@H]1C(=O)N(C)CC(=O)N[C@@H](CS)C(=O)N[C@@]1(C)CCCC=CCCC[C@@](C)(C(=O)N[C@@H](C)C(=O)O)NC(=O)[C@H](CCCNC(=N)N)NC(=O)[C@H](CCC(=O)O)NC(=O)[C@H](CCC(N)=O)NC1=O)[C@@H](C)CC [PA-0117, IALILEP(Sar)CS5QERS5A] (H-IALILEP[Sar]C[S5]QER[S5]A-OH; staple 10-14)
inhibition of PD-1/PD-L1 inhibitory signaling (luminescence) (PD-1/PD-L1 interaction; listed as RLS-0117): increase in luminescence indicative of inhibition of PD-1/PD-L1 inhibitory signaling; also recorded: able to inhibit PD-1/PD-L1 mediated cell signaling | Caspase 3/7 levels ([2]; eighth day): very low to undetectable levels of Caspase 3/7 | IL-2 signal at stimulation 2 [2]: showed an IL-2 signal at stimulation 2 | inhibitory activity in CTLA-4 blockade bioassay (luminescence) (CTLA-4): did not
